Among the test systems are MOLT-4 leukemia; OVCAR-4 ovarian; K-562 leukemia; A498 renal; HL-60(TB) leukemia; SF-268 CNS; SK-MEL-28 melanoma; EKVX NSCLC; NCI-H522 lung.
Common to all, as to assay: NCI-60 cell line screen, 48 h

Several values for one entry are separate records, joined by “and”; a condition that tells them apart may be missing. Equal entries are not always repeated.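 48-hour exposure; five concentrations; linearly interpolated endpoints. The concentration for 50% growth inhibition is given as GI50. TGI is the concentration that stops growth completely.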

For `O=S1(=O)N2CN3CN(C2)CN1C3`, the TGI in the test on MOLT-4 leukemia is 864 µM; with OVCAR-4 ovarian, 80.8 µM; with K-562 leukemia, > 31.6 µM and 169 µM; in the test with A498 renal, 522 µM; in the test on HL-60(TB) leukemia, 62.8 µM; in the test with SF-268 CNS, > 87.5 µM and 133 µM. Besides, the TGI in the test on SK-MEL-28 melanoma is 225 µM; in the test with EKVX NSCLC it was 823 µM; with NCI-H522 lung, 412 µM. For the same compound, the GI50 was 31.8 µM in the test with SF-268 CNS and 40.6 µM with SK-MEL-28 melanoma.

Take `CCCCC1=CSC(c2ccccc2)=C(c2ccccc2)S1`: the TGI in the test on MOLT-4 leukemia, in the test with OVCAR-4 ovarian, with K-562 leukemia, with A498 renal, with SK-MEL-28 melanoma and with EKVX NSCLC was greater than 100 µM throughout.

With `O=[N+]([O-])c1ccc(C2=Nc3ccccc3S(=O)C(c3ccccc3)C2)cc1` (configuration not stated), the TGI with MOLT-4 leukemia was 57.7 µM; in the test on OVCAR-4 ovarian, 42 µM; in the test with K-562 leukemia, 34.5 µM; in the test with HL-60(TB) leukemia, 39.1 µM; with SF-268 CNS it was greater than 100 µM; with SK-MEL-28 melanoma, 48.1 µM. Besides, the TGI with EKVX NSCLC stood at 45.1 µM; with NCI-H522 lung, 35.3 µM.

With `Nc1nncc2c1c(Br)cn2C1OC(CO)C(O)C1O` (configuration not stated), the TGI in the test with MOLT-4 leukemia, in the test with OVCAR-4 ovarian, in the test on K-562 leukemia, in the test on A498 renal, in the test with HL-60(TB) leukemia and in the test on SF-268 CNS was greater than 100 µM each time. Further, the TGI with SK-MEL-28 melanoma, in the test with EKVX NSCLC and with NCI-H522 lung was greater than 100 µM in each case.

`O=C(O/N=C1\CCCC\C1=C/c1ccccc1)c1ccc([N+](=O)[O-])cc1`: the TGI in the test on MOLT-4 leukemia, in the test with OVCAR-4 ovarian, in the test with K-562 leukemia, in the test on HL-60(TB) leukemia, in the test with SF-268 CNS and in the test on SK-MEL-28 melanoma was greater than 100 µM throughout. Also, the TGI in the test on EKVX NSCLC and in the test with NCI-H522 lung was greater than 100 µM in each case.

Take `Cc1ccc(NC(=O)CCCC(=O)CC(=O)c2ccc(Br)cc2)cc1`: the TGI in the test on MOLT-4 leukemia, in the test with OVCAR-4 ovarian, with K-562 leukemia, with A498 renal, in the test with SF-268 CNS and with SK-MEL-28 melanoma was greater than 100 µM throughout. Further, the TGI in the test on EKVX NSCLC and in the test with NCI-H522 lung was greater than 100 µM throughout.

Regarding `O=C1c2ccccc2C(=O)c2cc3c(cc21)CS(=O)C3`, the TGI with MOLT-4 leukemia, in the test with OVCAR-4 ovarian, with K-562 leukemia, in the test with HL-60(TB) leukemia, in the test with SF-268 CNS and in the test on SK-MEL-28 melanoma was greater than 100 µM in each case. In addition, the TGI with EKVX NSCLC and in the test with NCI-H522 lung was greater than 100 µM in each case.

For the compound `O=C1C(c2ccccc2)=C(c2ccccc2)C(c2ccc(Cc3ccc(C4=C(c5ccccc5)C(=O)C(c5ccccc5)=C4c4ccccc4)cc3)cc2)=C1c1ccccc1`, the TGI in the test on MOLT-4 leukemia, in the test with OVCAR-4 ovarian, in the test on K-562 leukemia, in the test on A498 renal, in the test on HL-60(TB) leukemia and in the test on SF-268 CNS was greater than 100 µM each time. For the same compound, the TGI in the test on EKVX NSCLC and in the test on NCI-H522 lung was greater than 100 µM in each case.

Take `Cc1ccc(NC(=O)CCc2nc(=S)[nH][nH]2)cc1`: the TGI in the test on MOLT-4 leukemia, with OVCAR-4 ovarian, in the test on K-562 leukemia, with A498 renal, in the test on HL-60(TB) leukemia and in the test on SF-268 CNS was greater than 100 µM in each case. In addition, the TGI with SK-MEL-28 melanoma, in the test on EKVX NSCLC and with NCI-H522 lung was greater than 100 µM throughout.

With `N#CCCn1[nH]c(=O)c(Cl)c(Cl)c1=O`, the TGI in the test on MOLT-4 leukemia was 37.4 µM; in the test with OVCAR-4 ovarian, 32 µM; in the test with K-562 leukemia it was 28.1 µM; in the test on A498 renal it was 41.2 µM; in the test with HL-60(TB) leukemia it was 35.5 µM; in the test with SF-268 CNS, 32 µM. Also, the TGI with SK-MEL-28 melanoma came to 30.9 µM; with EKVX NSCLC, 12.5 µM; in the test with NCI-H522 lung, 41.3 µM.

Consider `CCOC(=O)C(C)(NC(=O)c1ccc(NCc2ccc3nc(NC(=O)c4ccccc4)nc(NC(=O)c4ccccc4)c3c2)cc1)C(=O)OCC`, for which the TGI in the test with MOLT-4 leukemia was greater than 100 µM; in the test on OVCAR-4 ovarian, 4.18 µM; with A498 renal it was 22.7 µM; in the test with HL-60(TB) leukemia it was greater than 100 µM; in the test on SF-268 CNS, 28.7 µM; in the test on SK-MEL-28 melanoma, 27.6 µM. The TGI with EKVX NSCLC is 39.5 µM; in the test on NCI-H522 lung, 32.1 µM.

Consider `COC1C2C[C@@H](O)CCC2C(C(=O)OCCl)C[C@H]1O` (some centres not stated), for which the TGI in the test with MOLT-4 leukemia, in the test on OVCAR-4 ovarian, in the test with K-562 leukemia, with A498 renal, with HL-60(TB) leukemia and with SF-268 CNS was greater than 100 µM throughout. For the same compound, the TGI in the test with SK-MEL-28 melanoma and in the test on NCI-H522 lung was greater than 100 µM each time.

In the case of `Nc1nnc2c(-c3ccccc3)[nH]nc2n1`, the TGI is greater than 100 µM in the test on MOLT-4 leukemia; greater than 100 µM in the test with OVCAR-4 ovarian; greater than 100 µM in the test on K-562 leukemia; greater than 100 µM in the test with A498 renal; greater than 100 µM in the test on HL-60(TB) leukemia; 58.7 µM in the test on SF-268 CNS. Also, the TGI in the test on SK-MEL-28 melanoma, with EKVX NSCLC and with NCI-H522 lung was greater than 100 µM in each case.

In the case of `O=C(c1ccc(O)cc1O)C1C(c2ccc(O)cc2)OC(c2ccc(O)cc2)C1C(=O)c1ccc(O)cc1O` (configuration not stated), the TGI with OVCAR-4 ovarian was greater than 100 µM; with HL-60(TB) leukemia it was 39.4 µM; in the test with SF-268 CNS it was 42.5 µM; with SK-MEL-28 melanoma, 36 µM; with EKVX NSCLC it was 60 µM; with NCI-H522 lung, 34.3 µM.

For the compound `CC(C)/C=C1\CCC(CN(C)C)C1=O` (configuration not stated), the TGI in the test on MOLT-4 leukemia turned out to be 3.48 µM; with OVCAR-4 ovarian, 30.8 µM; with K-562 leukemia, 7.85 µM; in the test on A498 renal, 16.7 µM; with HL-60(TB) leukemia, 4.55 µM; with SF-268 CNS it was 38.8 µM. Also, the values for the TGI in the test on SK-MEL-28 melanoma, in the test with EKVX NSCLC and in the test with NCI-H522 lung were 5.07 µM, 15.5 µM and 0.22 µM, respectively.

In the case of `CN(C)CCNC(=O)c1cccc2c1nc(-c1ccc(F)cc1)c1ccccc12`, the TGI in the test on MOLT-4 leukemia is 1.77 µM; in the test on OVCAR-4 ovarian it was 19.1 µM; with K-562 leukemia, 11.7 µM; in the test with A498 renal it was 16.2 µM; in the test on HL-60(TB) leukemia it was 10.9 µM; with SF-268 CNS it was 21.8 µM. Also, the TGI with SK-MEL-28 melanoma stood at 20.3 µM; in the test with EKVX NSCLC it was 21.7 µM.

Values taken from PubChem BioAssay (NCI).
